Measured values: patent US20240101544A1, “INHIBITORS OF QPCTL AND QPCT” (priority 2022, published 2024)

Assays:
QPCTL = QPCTL (Homo sapiens (Human), UniProt Q9NXS2); assay: QPCTL Enzymatic Activity Assay (coupled-enzyme fluorescent assay, H-Gln-AMC substrate); assay type: biochemical; conditions: recombinant truncated human QPCTL 10-12 nM, 10 μM H-Gln-AMC; read-out: QPCTL Inhibition IC50
Procedure: Protein expression was induced when the bacterial culture OD600 was approximately 0.7 using 1 mM IPTG and the cells incubated at 20° C. for approximately 16 hours. The QPCTL was purified using nickel column purification, digested by TEV, followed by a second nickel column purification. The protein was further purified by size-exclusion chromatography using a Superdex™ 75 column. The final protein was concentrated using ultrafiltration tubes at a molecular weight cutoff of 10 kilodaltons and stored frozen in protein buffer (25 mM Tris pH 8.3, 150 mM NaCl).
QPCTL activity was measured in a coupled-enzyme assay using the QPCTL substrate, glutamine-7-amido-4-methylcoumarin (H-Gln-AMC, Bachem), which is converted to pyroglutamyl-AMC by QPCTL. Pyroglutamyl-AMC is then converted to the fluorescent molecule, AMC, by incubation with the human enzyme pyroglutamyl peptidase-1. […] Final concentrations of DMSO and test compounds were 2% and 30-100 μM, respectively. Following the incubation, H-Gln-AMC substrate was diluted in assay buffer and added to each well for a final concentration of 10 μM. The reaction was incubated for 60 min at 37° C., before stopping it by boiling at 100° C. for 5 minutes and cooling the plate at 4° C. for 3 minutes. […] Following incubation, the fluorescence was measured with a plate reader using excitation at 380 nm and emission at 460 nm. […] Concentration-response-curves and IC50 values (Table 17) were generated using curve fit software.

QPCT (rhQPCT) = QPCT (rhQPCT) (Homo sapiens (Human), UniProt Q16769); assay: QPCT Enzymatic Activity Assay (coupled-enzyme fluorescent assay, H-Gln-AMC substrate); assay type: biochemical; conditions: rhQPCT 10-12 nM, 10 μM H-Gln-AMC; read-out: QPCT Inhibition IC50
Sequence of QPCT (rhQPCT) (Q16769 29-361): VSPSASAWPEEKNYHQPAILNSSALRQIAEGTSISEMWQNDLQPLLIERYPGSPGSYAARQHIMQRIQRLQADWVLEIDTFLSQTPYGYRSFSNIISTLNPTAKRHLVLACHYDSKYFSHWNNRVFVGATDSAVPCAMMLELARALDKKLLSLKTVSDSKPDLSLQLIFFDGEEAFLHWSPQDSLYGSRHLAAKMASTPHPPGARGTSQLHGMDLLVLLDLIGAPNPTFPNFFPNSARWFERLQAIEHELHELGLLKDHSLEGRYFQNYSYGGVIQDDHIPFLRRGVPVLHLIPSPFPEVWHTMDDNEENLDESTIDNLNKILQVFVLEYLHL
Procedure: QPCT activity was measured in a coupled-enzyme assay using the QPCT substrate, glutamine-7-amido-4-methylcoumarin (H-Gln-AMC, Bachem), which is converted to pyroglutamyl-AMC by QPCT. Pyroglutamyl-AMC is then converted to the fluorescent molecule, AMC, by incubation with the human enzyme pyroglutamyl peptidase-1 (PGPEP-1). […] Following the incubation, H-Gln-AMC substrate was diluted in assay buffer and added to each well for a final concentration of 10 μM. The reaction was incubated for 60 min at 37° C., before stopping it by boiling at 100° C. for 5 minutes and cooling the plate at 4° C. for 3 minutes. […] Following incubation, the fluorescence was measured with a plate reader using excitation at 380 nm and emission at 460 nm. […] Concentration-response-curves and IC50 values (Table 17) were generated using Collaborative Drug Discovery software.

Sequence of QPCTL (Q9NXS2 53-382): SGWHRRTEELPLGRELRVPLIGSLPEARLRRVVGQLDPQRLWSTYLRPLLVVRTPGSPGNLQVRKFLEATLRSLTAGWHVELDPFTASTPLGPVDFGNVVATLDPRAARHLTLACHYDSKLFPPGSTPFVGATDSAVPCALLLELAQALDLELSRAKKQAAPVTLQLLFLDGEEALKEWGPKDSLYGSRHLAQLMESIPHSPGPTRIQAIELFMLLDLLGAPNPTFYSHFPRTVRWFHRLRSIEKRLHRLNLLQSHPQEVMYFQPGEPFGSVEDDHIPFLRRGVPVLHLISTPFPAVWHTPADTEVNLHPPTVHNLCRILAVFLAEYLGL

Compound	IC50 (QPCTL) [nM]	IC50 (QPCT (rhQPCT)) [nM]
Cn1cnnc1N1CCN(c2c(C#N)ccnc2-c2ccc(F)nc2)CC1 [Example 136, 6′-fluoro-3-(4-(4-methyl-4H-1,2,4-triazol-3-yl)piperazin-1-yl)-[2,3′-bipyridine]-4-carbonitrile]	< 100	< 100
6′-fluoro-3-(4-(1-methyl-1H-imidazol-5-yl)piperidin-1-yl)-[2,3′-bipyridine]-4-carbonitrile [Example 134]	< 100	< 100
Cn1ccc(-c2cnc(-c3ccc(F)nc3)c(N3CCC(c4nncn4C)CC3)c2C#N)n1 [Example 138, 6′-fluoro-5-(1-methyl-1H-pyrazol-3-yl)-3-(4-(4-methyl-4H-1,2,4-triazol-3-yl)piperidin-1-yl)-[2,3′-bipyridine]-4-carbonitrile]	> 10000	1000 to 10000
[2H]C([2H])([2H])Oc1ccc(-c2ccc(F)nc2)c(N2CCC(c3nncn3C)CC2)c1C#N [Example 57, 3-(6-fluoropyridin-3-yl)-6-(methoxy-d3)-2-(4-(4-methyl-4H-1,2,4-triazol-3-yl)piperidin-1-yl)benzonitrile]	< 100	< 100
Cc1ncn(-c2ccc(-c3ccc(F)nc3)c(N3CCC(c4nncn4C)CC3)c2C#N)n1 [Example 50, 3-(6-fluoropyridin-3-yl)-6-(3-methyl-1H-1,2,4-triazol-1-yl)-2-(4-(4-methyl-4H-1,2,4-triazol-3-yl)piperidin-1-yl)benzonitrile]	< 100	< 100
Cn1cnnc1N1CCN(c2c(C#N)ccc(F)c2-c2ccc(F)nc2)CC1 [Example 127, 4-fluoro-3-(6-fluoropyridin-3-yl)-2-(4-(4-methyl-4H-1,2,4-triazol-3-yl)piperazin-1-yl)benzonitrile]	< 100	< 100
Cn1cnnc1C1CCN(c2c(C#N)cccc2-c2ccc(C(F)(F)F)nc2)CC1 [Example 29, 2-[4-(4-methyl-4H-1,2,4-triazol-3-yl)piperidin-1-yl]-3-[6-(trifluoromethyl)pyridin-3-yl]benzonitrile]	100 to 1000	100 to 1000
COc1ccncc1-c1cccc(C#N)c1N1CCC(c2nnc(N)s2)CC1 [Example 21, 2-[4-(5-amino-1,3,4-thiadiazol-2-yl)piperidin-1-yl]-3-(4-methoxypyridin-3-yl)benzonitrile]	100 to 1000	100 to 1000
Cn1cnnc1C1CCN(c2c(C#N)cccc2-c2ccc(B(O)O)cc2)CC1 [Example 111, (3′-cyano-2′-(4-(4-methyl-4H-1,2,4-triazol-3-yl)piperidin-1-yl)-[1,1′-biphenyl]-4-yl)boronic acid]	100 to 1000	< 100
Cn1cnnc1C1CCN(c2c(C#N)cccc2-c2ccc(OS(=O)(=O)F)nc2)CC1 [Example 119, 5-(3-cyano-2-(4-(4-methyl-4H-1,2,4-triazol-3-yl)piperidin-1-yl)phenyl)pyridin-2-yl sulfurofluoridate]	< 100	100 to 1000
COc1ccncc1-c1cccc(C#N)c1N1CCC(c2cncn2C)CC1 [Example 31, 3-(4-methoxypyridin-3-yl)-2-[4-(1-methyl-1H-imidazol-5-yl)piperidin-1-yl]benzonitrile]	< 100	< 100
CN1CCOc2c(-c3cccc(C#N)c3N3CCC(c4nncn4C)CC3)cncc21 [Example 22, 3-{4-methyl-2H,3H,4H-pyrido[4,3-b][1,4]oxazin-8-yl}-2-[4-(4-methyl-4H-1,2,4-triazol-3-yl)piperidin-1-yl]benzonitrile]	100 to 1000	100 to 1000
Cn1cnnc1C1CCN(c2c(C#N)cccc2-c2ccc(F)cc2F)CC1 [Example 103, 2′,4′-difluoro-2-(4-(4-methyl-4H-1,2,4-triazol-3-yl)piperidin-1-yl)-[1,1′-biphenyl]-3-carbonitrile]	100 to 1000	< 100

Results, then the compound that gave them:

IC50 (QPCTL) [nM]	IC50 (QPCT (rhQPCT)) [nM]	Compound
< 100	< 100	CN(C)CCOc1ccc(-c2ccnnc2)c(N2CCC(c3nncn3C)CC2)c1C#N [Example 58, 6-(2-(dimethylamino)ethoxy)-2-(4-(4-methyl-4H-1,2,4-triazol-3-yl)piperidin-1-yl)-3-(pyridazin-4-yl)benzonitrile]
< 100	< 100	Cn1cnnc1C1CCN(c2c(C#N)cccc2-c2cccc(B(O)O)c2)CC1 [Example 112, (3′-cyano-2′-(4-(4-methyl-4H-1,2,4-triazol-3-yl)piperidin-1-yl)-[1,1′-biphenyl]-3-yl)boronic acid]
100 to 1000	< 100	Cn1cnnc1C1CCN(c2c(C#N)cccc2-c2ccc(F)c(F)c2)CC1 [Example 102, 3′,4′-difluoro-2-(4-(4-methyl-4H-1,2,4-triazol-3-yl)piperidin-1-yl)-[1,1′-biphenyl]-3-carbonitrile]
< 100	< 100	Cn1cnnc1N1CCN(c2c(-c3ccc(F)nc3)ccc(C3CC3)c2C#N)CC1 [Example 129, 6-cyclopropyl-3-(6-fluoropyridin-3-yl)-2-(4-(4-methyl-4H-1,2,4-triazol-3-yl)piperazin-1-yl)benzonitrile]
100 to 1000	< 100	Cn1cnnc1C1CCN(c2c(C#N)cccc2-c2cnc3cn[nH]c3c2)CC1 [Example 125, 2-(4-(4-methyl-4H-1,2,4-triazol-3-yl)piperidin-1-yl)-3-(1H-pyrazolo[4,3-b]pyridin-6-yl)benzonitrile]
< 100	< 100	[2H]C([2H])([2H])n1cnnc1C1CCN(c2c(-c3ccnnc3)ccc(-c3cnn(C)c3)c2C#N)CC1 [Example 55, 6-(1-methyl-1H-pyrazol-4-yl)-2-(4-(4-(methyl-d3)-4H-1,2,4-triazol-3-yl)piperidin-1-yl)-3-(pyridazin-4-yl)benzonitrile]
< 100	< 100	Cn1cnnc1C1CCN(c2c(-c3ccc(F)nc3)ccc(OC3CCOC3)c2C#N)CC1 (single isomer, unassigned) [Example 89, 3-(6-fluoropyridin-3-yl)-2-(4-(4-methyl-4H-1,2,4-triazol-3-yl)piperidin-1-yl)-6-((tetrahydrofuran-3-yl)oxy)benzonitrile]
100 to 1000	100 to 1000	N#Cc1cccc(-c2ccc(F)nc2)c1N1CCC(c2nnc[nH]2)CC1 [Example 49, 2-(4-(4H-1,2,4-triazol-3-yl)piperidin-1-yl)-3-(6-fluoropyridin-3-yl)benzonitrile]
< 100	< 100	Cn1cnnc1C1CCN(c2c(C#N)cccc2-c2cncc(Br)c2)CC1 [Example 114, 3-(5-bromopyridin-3-yl)-2-(4-(4-methyl-4H-1,2,4-triazol-3-yl)piperidin-1-yl)benzonitrile]
1000 to 10000	100 to 1000	Cn1ccc(-c2cc(F)c(-c3ccc(F)nc3)c(N3CCC(c4nncn4C)CC3)c2C#N)n1 [Example 131, 4-fluoro-3-(6-fluoropyridin-3-yl)-6-(1-methyl-1H-pyrazol-3-yl)-2-(4-(4-methyl-4H-1,2,4-triazol-3-yl)piperidin-1-yl)benzonitrile]
> 10000	> 10000	COc1ccncc1-c1cccc(C#N)c1N1CCC(n2cnnc2C)CC1 [Example 18, 3-(4-methoxypyridin-3-yl)-2-[4-(3-methyl-4H-1,2,4-triazol-4-yl)piperidin-1-yl]benzonitrile]
100 to 1000	100 to 1000	Cn1cnnc1C1CCN(c2c(C#N)cccc2-c2ccc3c(c2)B(O)OC3)CC1 [Example 121, 3-(1-hydroxy-1,3-dihydrobenzo[c][1,2]oxaborol-6-yl)-2-(4-(4-methyl-4H-1,2,4-triazol-3-yl)piperidin-1-yl)benzonitrile]
100 to 1000	< 100	C#Cc1ccc(-c2cccc(C#N)c2N2CCC(c3nncn3C)CC2)cc1C=O [Example 128, 4′-ethynyl-3′-formyl-2-(4-(4-methyl-4H-1,2,4-triazol-3-yl)piperidin-1-yl)-[1,1′-biphenyl]-3-carbonitrile]
> 10000	100 to 1000	Cn1cc(-c2cnc(-c3ccc(F)nc3)c(N3CCC(c4nncn4C)CC3)c2C#N)cn1 [Example 139, 6′-fluoro-5-(1-methyl-1H-pyrazol-4-yl)-3-(4-(4-methyl-4H-1,2,4-triazol-3-yl)piperidin-1-yl)-[2,3′-bipyridine]-4-carbonitrile]
